# Measurements: patent US20120171123A1, “USES AND COMPOSITIONS FOR TREATMENT OF RHEUMATOID ARTHRITIS” (priority 2006, published 2012)
# How the values were obtained:
# [1] = test system: patients with active rheumatoid arthritis; assay: Study A: tender and swollen joint count (TJC28/SJC28); assay type: in vivo, human; conditions: for Change in SJC, mean change from baseline / Change in TJC, mean change from baseline / SJC = 0 / TJC = 0: 12 weeks
# Experimental: Swollen and tender joints are the most characteristic features of RA, as disease severity is directly related to the number of swollen and tender joints. Counting swollen and tender joints is a key component of the clinical assessment of RA. Tender joint count (TJC) is an assessment of 28 or more joints where several different aspects of tenderness are assessed by pressure and joint manipulation on physical examination. Swollen joint count (SJC): an assessment of 28 or more joints where joints are classified as either swollen or not swollen. For TJC and SJC scoring see Fuchs and Pincus, Arthritis Rheum 37:470-475, 1994; Arthritis Rheum 37:463-464, 1994).
# The study design included a 12 week open label treatment period followed by a continuation period examining safety and efficacy. […] The main inclusion criteria for the study were the following: males and females ≧18 years; rheumatoid arthritis (RA; defined by ACR criteria) for ≧3 months; unsatisfactory response (or intolerance) to at least one prior DMARD; and patients with active RA (DAS28≧3.2). Baseline demographics and disease severity is shown below in Table 1:
# Efficacy of adalimumab treatment was determined by examining signs and symptoms of the patients. Various assays were used to determine efficacy, including ACR response, EULAR response, TJC and SJC count, and DAS28.
# The objective of this study was to evaluate the impact of prior biologic therapies, in particular TNF-antagonists etanercept (ETA) and infliximab (INF), on key efficacy parameters of adalimumab therapy in patients with long-standing RA in clinical practice. To evaluate the impact of prior biological therapies, patients with moderate to severe RA enrolled at 450 sites in 11 European countries plus Australia (Study A). Patients with moderate to severe RA and an inadequate response to prior DMARD therapies were enrolled in a 12-week open-label study with an optional extension phase. […] Patients with previous biologic treatment must have received the last administration at least 8 weeks before enrollment Routine safety and efficacy data were collected at weeks 2, 6, and 12, and every 8 weeks in the extension phase. Efficacy parameters included ACR20, ACR50, ACR70, EULAR Response, HAQ, tender and swollen joint count (TJC28/SJC28), and DAS28. […] For this interim analysis, efficacy outcomes were evaluated after 12 weeks of therapy per the number and type of prior biologics used: None, any (ETA, INF, anakinra), ETA only, INF only, or ETA and INF but not anakinra.
# Patients with long-standing, moderate to severe RA were enrolled in Study A at 450 sites in 12 different countries. The study design for Study A is outlined in FIG. 21. […] Previous treatment with other biologics was allowed up to 8 weeks before enrollment. Patients met the following inclusion criteria: Age ≧18 years; RA (defined by American College of Rheumatology criteria) for ≧3 months; active, moderate to severe RA (Disease Activity Score (DAS28)≧3.2); unsatisfactory response or intolerance to at least one prior DMARD, including biologics. Efficacy assessments were performed at weeks 0 (baseline), 2, 6, and 12. The key outcomes measured were: change in DAS28; EULAR responses; ACR20, ACR50, ACR70 responses; changes in Tender Joint Count (TJC) and Swollen Joint Count (SJC); and change in Health Assessment Questionnaire (HAQ).
# [2] = test system: patients with long-standing RA who had inadequate responses to MTX; assay: Study 1: serious adverse events
# Experimental: Periodic ACR component evaluations were also performed throughout the study. Outcome measures included the following: Total Sharp Score (TSS), including joint erosions (JE) and joint space narrowing (JSN); ACR20, ACR50, and ACR70 response rates; and individual components of ACR responses criteria, including swollen joint count (SJC) and tender joint count (TJC). Efficacy and safety evaluations were conducted at regularly scheduled visits.
# [3] = prior biologic: ETA + INF (n=78)
# [4] = Week 12, concomitant LEF only (n=557)
# [5] = Week 12, concomitant MTX + LEF (n=123)
# [6] = Week 12, concomitant MTX only (n=1561)
# [7] = Week 12, concomitant QC/HQC (n=85)
# [8] = Week 12, concomitant SSZ only (n=89)
# [9] = Wk 12, concomitant MTX Im 15 mg (N=76), no other DMARD
# [10] = Wk 12, concomitant MTX Iv 15 mg (N=23), no other DMARD
# [11] = Wk 12, concomitant MTX Sc 15 mg (N=37), no other DMARD
# [12] = Wk 12, concomitant MTX oral 15 mg (N=405), no other DMARD
# [13] = Wk 12, concomitant MTX oral ≦7.5 (N=127), no other DMARD
# [14] = Wk 12, concomitant MTX oral ≧20 mg (N=216), no other DMARD
# [15] = week 12, prior biologic: ETA + INF
# [16] = blinded-controlled and OLE periods
substance,measurement,setting,value
"adalimumab: human anti-TNF mAb (HUMIRA, Abbott Laboratories), described in U.S. Pat. No. 6,090,382 as D2E7","Change in SJC, mean change from baseline",[1]; all pts in Study A (n=4241),−6
same,"Change in TJC, mean change from baseline",[1]; all pts in Study A (n=4241),−8
same,SJC = 0,[1]; all pts in Study A (n=4241),24%
same,TJC = 0,[1]; all pts in Study A (n=4241),21%
same,"Change in SJC, mean change from baseline",[1]; prior biologic: Any (n=688),−6
same,"Change in TJC, mean change from baseline",[1]; prior biologic: Any (n=688),−8
same,SJC = 0,[1]; prior biologic: Any (n=688),18%
same,TJC = 0,[1]; prior biologic: Any (n=688),16%
same,"Change in SJC, mean change from baseline",[1]; prior biologic: ETA (n=114),−7
same,"Change in TJC, mean change from baseline",[1]; prior biologic: ETA (n=114),−8
same,SJC = 0,[1]; prior biologic: ETA (n=114),21%
same,TJC = 0,[1]; prior biologic: ETA (n=114),16%
same,"Change in SJC, mean change from baseline",[1]; [3],−5
same,"Change in TJC, mean change from baseline",[1]; [3],−7
same,SJC = 0,[1]; [3],7%
same,TJC = 0,[1]; [3],10%
same,"Change in SJC, mean change from baseline",[1]; prior biologic: INF (n=358),−6
same,"Change in TJC, mean change from baseline",[1]; prior biologic: INF (n=358),−8
same,SJC = 0,[1]; prior biologic: INF (n=358),22%
same,TJC = 0,[1]; prior biologic: INF (n=358),17%
same,"Change in SJC, mean change from baseline",[1]; prior biologic: None (n=3553),−7
same,"Change in TJC, mean change from baseline",[1]; prior biologic: None (n=3553),−8
same,SJC = 0,[1]; prior biologic: None (n=3553),25%
same,TJC = 0,[1]; prior biologic: None (n=3553),22%
same,"Change in SJC (0-28), mean change from baseline",[1]; [4],−6
same,"Change in TJC (0-28), mean change from baseline",[1]; [4],−8
same,"Change in SJC (0-28), mean change from baseline",[1]; [5],−8
same,"Change in TJC (0-28), mean change from baseline",[1]; [5],−10
same,"Change in SJC (0-28), mean change from baseline","[1]; Week 12, concomitant MTX + SSZ",−7
same,"Change in TJC (0-28), mean change from baseline","[1]; Week 12, concomitant MTX + SSZ",−8
same,"Change in SJC (0-28), mean change from baseline",[1]; [6],−7
same,"Change in TJC (0-28), mean change from baseline",[1]; [6],−8
same,"Change in SJC (0-28), mean change from baseline",[1]; [7],−7
same,"Change in TJC (0-28), mean change from baseline",[1]; [7],−9
same,"Change in SJC (0-28), mean change from baseline",[1]; [8],−6
same,"Change in TJC (0-28), mean change from baseline",[1]; [8],−7
same,"Change in SJC (0-28), mean change from baseline",[1]; [9],−6
same,"Change in TJC (0-28), mean change from baseline",[1]; [9],−8
same,"Change in SJC (0-28), mean change from baseline",[1]; [10],−7
same,"Change in TJC (0-28), mean change from baseline",[1]; [10],−11
same,"Change in SJC (0-28), mean change from baseline",[1]; [11],−7
same,"Change in TJC (0-28), mean change from baseline",[1]; [11],−10
same,"Change in SJC (0-28), mean change from baseline",[1]; [12],−6
same,"Change in TJC (0-28), mean change from baseline",[1]; [12],−8
same,"Change in SJC (0-28), mean change from baseline",[1]; [13],−7
same,"Change in TJC (0-28), mean change from baseline",[1]; [13],−8
same,"Change in SJC (0-28), mean change from baseline",[1]; [14],−7
same,"Change in TJC (0-28), mean change from baseline",[1]; [14],−9
same,patients achieving SJC=0,[1]; week 12,25%
same,patients achieving TJC=0,[1]; week 12,23%
same,SJC (0-28) mean change from baseline,"[1]; week 12, 1 prior biologic",−6.4
same,TJC (0-28) mean change from baseline,"[1]; week 12, 1 prior biologic",−8.0
same,SJC (0-28) mean change from baseline,"[1]; week 12, 2 prior biologics",−6.9
same,TJC (0-28) mean change from baseline,"[1]; week 12, 2 prior biologics",−8.1
same,SJC (0-28) mean change from baseline,"[1]; week 12, 3 prior biologics",−6.6
same,TJC (0-28) mean change from baseline,"[1]; week 12, 3 prior biologics",−11.3
same,reduction in SJC28,"[1]; week 12, median",~70%
same,reduction in TJC28,"[1]; week 12, median",~77%
same,SJC (0-28) mean change from baseline,"[1]; week 12, no prior biologic",−6.4
same,TJC (0-28) mean change from baseline,"[1]; week 12, no prior biologic",−8.1
same,SJC (0-28) mean change from baseline,"[1]; week 12, prior etanercept only",−6.6
same,TJC (0-28) mean change from baseline,"[1]; week 12, prior etanercept only",−8.4
same,SJC (0-28) mean change from baseline,"[1]; week 12, prior infliximab only",−6.8
same,TJC (0-28) mean change from baseline,"[1]; week 12, prior infliximab only",−7.8
same,Median TJC reduction,"[1]; week 12, prior biologic: Any",−8
same,Mediant SJC reduction,"[1]; week 12, prior biologic: Any",−6
same,Median TJC reduction,"[1]; week 12, prior biologic: ETA",−8
same,Mediant SJC reduction,"[1]; week 12, prior biologic: ETA",−7
same,Median TJC reduction,[1]; [15],−7
same,Mediant SJC reduction,[1]; [15],−5
same,Median TJC reduction,"[1]; week 12, prior biologic: INF",−8
same,Mediant SJC reduction,"[1]; week 12, prior biologic: INF",−6
same,Median TJC reduction,"[1]; week 12, prior biologic: None",−8
same,Mediant SJC reduction,"[1]; week 12, prior biologic: None",−7
same,Demyelinating disease,[2]; [16],0.2 events/100-PY
same,Histoplamosis,[2]; [16],0.2 events/100-PY
same,Tuberculosis,[2]; [16],0.2 events/100-PY
same,Demyelinating disease,[2]; blinded-controlled period,0.3 events/100-PY
same,Histoplamosis,[2]; blinded-controlled period,0.3 events/100-PY
same,Tuberculosis,[2]; blinded-controlled period,0.3 events/100-PY
same,Lymphoma,[2]; in vivo,0.3 events/100-PY
same,Urinary tract infections,[2]; in vivo,0.3 events/100-PY
